We go through 15 compounds from PubChem BioAssay (NCI).

SMILES strings stand for the structures.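 Method: 48-hour compound exposure of cells in 96-well plates, five concentrations, linear interpolation of endpoints. GI50 marks 50% less growth. TGI: total growth inhibition.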

Among the test systems are CAKI-1 renal; CCRF-CEM leukemia; HL-60(TB) leukemia; M14 melanoma; NCI-H522 lung; SF-539 CNS; SK-MEL-5 melanoma; SN12C renal; SNB-19 CNS; SW-620 colon; TK-10 renal; UACC-62 melanoma; UO-31 renal; MDA-MB-435; OVCAR-5 ovarian; HS 578T breast.
What all share (test): NCI tumour cell line growth inhibition, 48 h

On to `Cc1c(N)c(C#N)c2n(C)c3ncccc3n2c1=O`, for which the TGI in the assay with CAKI-1 renal, with CCRF-CEM leukemia, in the assay on HL-60(TB) leukemia, in the assay with M14 melanoma, in the assay on NCI-H522 lung and in the assay on SF-539 CNS was greater than 100 µM each time. For the same compound, the TGI in the assay with SK-MEL-5 melanoma, in the assay with SN12C renal, with SNB-19 CNS, in the assay on SW-620 colon, with TK-10 renal and with UACC-62 melanoma was greater than 100 µM throughout. Besides, the TGI in the assay with UO-31 renal was greater than 100 µM.
`Cn1c(=O)oc2cc(C(O)CN3CCN(Cc4ccc5c(c4)OCO5)CC3)ccc21` (centres undefined): the TGI in the assay on CAKI-1 renal, in the assay with CCRF-CEM leukemia, in the assay on HL-60(TB) leukemia, with M14 melanoma, with MDA-MB-435 and with NCI-H522 lung was greater than 100 µM in each case. The TGI in the assay on OVCAR-5 ovarian, with SF-539 CNS, in the assay with SN12C renal, with SNB-19 CNS, in the assay with SW-620 colon and in the assay with TK-10 renal was greater than 100 µM in each case. Besides, the TGI with UACC-62 melanoma and in the assay with UO-31 renal was greater than 100 µM throughout.
On to `CC(=O)[CH-]C(=O)c1ccccc1.CC(=O)[CH-]C(=O)c1ccccc1.CC[C@H](CCC(C)[C@H]1CCC2[C@@H]3CC=C4C[C@@H]([O-])CC[C@]4(C)C3CC[C@@]21C)C(C)C.CC[C@H](CCC(C)[C@H]1CCC2[C@@H]3CC=C4C[C@@H]([O-])CC[C@]4(C)C3CC[C@@]21C)C(C)C.Cl.[Ti+4]` (some centres undefined), for which the TGI in the assay with CAKI-1 renal, in the assay with CCRF-CEM leukemia, in the assay on HL-60(TB) leukemia, with M14 melanoma, in the assay on NCI-H522 lung and in the assay on OVCAR-5 ovarian was greater than 25 µM each time. Also, the TGI in the assay on SF-539 CNS, with SK-MEL-5 melanoma, in the assay on SN12C renal, in the assay with SNB-19 CNS, in the assay on SW-620 colon and in the assay with TK-10 renal was greater than 25 µM throughout. Also, the TGI in the assay on UACC-62 melanoma and with UO-31 renal was greater than 25 µM throughout. In addition, the GI50 with UACC-62 melanoma was greater than 25 µM.
For the compound `O=C1NC(=S)NC(=O)C1=Cc1ccc([N+](=O)[O-])o1`, the TGI in the assay on CAKI-1 renal was found to be 37 µM; with CCRF-CEM leukemia it was 73.6 µM; with HL-60(TB) leukemia it was 87.6 µM; with M14 melanoma, 29.5 µM; in the assay with NCI-H522 lung, 35.1 µM; with OVCAR-5 ovarian it was 34.6 µM. Moreover, the TGI in the assay with SF-539 CNS is 61.1 µM; with SK-MEL-5 melanoma, 44.5 µM; with SN12C renal, 29.8 µM; in the assay on SNB-19 CNS, greater than 100 µM; with SW-620 colon, 41.6 µM; in the assay with TK-10 renal, greater than 100 µM. For the same compound, the TGI in the assay with UACC-62 melanoma was 39.1 µM; in the assay with UO-31 renal it was greater than 100 µM.
Turning to `[N-]=[N+]=NC1(Cc2ccccc2)C(=O)Nc2ccccc2C1=O` (centres undefined), the TGI with CAKI-1 renal, in the assay on CCRF-CEM leukemia, with HL-60(TB) leukemia, in the assay on M14 melanoma, in the assay with NCI-H522 lung and with OVCAR-5 ovarian was greater than 100 µM throughout. The TGI in the assay on SF-539 CNS, with SK-MEL-5 melanoma, in the assay on SN12C renal, in the assay with SNB-19 CNS, in the assay on SW-620 colon and in the assay on TK-10 renal was greater than 100 µM throughout. For the same compound, the TGI in the assay with UACC-62 melanoma and in the assay with UO-31 renal was greater than 100 µM throughout.
For `CC12CCC(=O)N1[C@@H](c1ccccc1)[C@@H](c1ccccc1)O2` (some centres undefined), the TGI with CAKI-1 renal, in the assay on CCRF-CEM leukemia, with HL-60(TB) leukemia, in the assay on M14 melanoma, in the assay on NCI-H522 lung and in the assay with OVCAR-5 ovarian was greater than 100 µM throughout. For the same compound, the TGI in the assay on SF-539 CNS, in the assay with SK-MEL-5 melanoma, with SN12C renal, in the assay on SNB-19 CNS, in the assay with SW-620 colon and in the assay with UACC-62 melanoma was greater than 100 µM each time. In the assay with UO-31 renal, this compound displayed a TGI greater than 100 µM.
Regarding `C=CCc1cc(OC)c(O)c(C(=O)/C=C/c2ccc(OC)c(OC)c2)c1`, the TGI in the assay on CAKI-1 renal stood at 58.7 µM; in the assay with CCRF-CEM leukemia it was 56.4 µM; in the assay with HL-60(TB) leukemia, 38 µM; with M14 melanoma it was 31.7 µM; in the assay on NCI-H522 lung, 7.08 µM; with OVCAR-5 ovarian it was 45.4 µM. The TGI in the assay on SF-539 CNS stood at 48.1 µM; with SK-MEL-5 melanoma, 36.6 µM; in the assay with SNB-19 CNS, 30.5 µM; in the assay on SW-620 colon, 97.1 µM; with TK-10 renal, 64.1 µM; in the assay on UACC-62 melanoma, 52.2 µM. Further, the TGI in the assay on UO-31 renal was found to be 29.6 µM.
For `CC1=CP(=O)(OC(C)C)C=C(C)C1=C(Cl)Cl` (centres undefined), the TGI was greater than 100 µM in the assay with CCRF-CEM leukemia; greater than 100 µM with HL-60(TB) leukemia; greater than 100 µM with M14 melanoma; 9.03 µM in the assay with NCI-H522 lung; greater than 100 µM in the assay with OVCAR-5 ovarian; greater than 100 µM in the assay on SF-539 CNS. Moreover, the TGI in the assay with SK-MEL-5 melanoma, in the assay on SN12C renal, in the assay with SNB-19 CNS, in the assay on SW-620 colon, with TK-10 renal and in the assay with UACC-62 melanoma was greater than 100 µM in each case. This compound gave a TGI with UO-31 renal of 27.2 µM.
Take `CCCCN(CCCC)CC(C(=O)Nc1ccc([N+](=O)[O-])cc1[N+](=O)[O-])/C(C)=N\NC(=O)c1ccncc1` (centres undefined): the TGI in the assay with CAKI-1 renal, with CCRF-CEM leukemia, with HL-60(TB) leukemia, with M14 melanoma, in the assay with NCI-H522 lung and in the assay on OVCAR-5 ovarian was greater than 100 µM in each case. Further, the TGI in the assay with SF-539 CNS, with SK-MEL-5 melanoma, in the assay on SN12C renal, in the assay on SNB-19 CNS, in the assay with SW-620 colon and with TK-10 renal was greater than 100 µM each time. Besides, the TGI in the assay with UACC-62 melanoma and in the assay with UO-31 renal was greater than 100 µM each time.
As to `CCN(CC)CC(C(C)=O)C(c1ccccc1)c1c(O)c2ccccc2oc1=O` (centres undefined), the TGI in the assay with CAKI-1 renal, in the assay with CCRF-CEM leukemia, in the assay on HL-60(TB) leukemia, in the assay on M14 melanoma, in the assay with NCI-H522 lung and in the assay with OVCAR-5 ovarian was greater than 100 µM each time. For the same compound, the TGI in the assay on SF-539 CNS, in the assay with SK-MEL-5 melanoma, in the assay on SN12C renal, in the assay with SNB-19 CNS, in the assay with SW-620 colon and with TK-10 renal was greater than 100 µM each time. Moreover, the TGI with UACC-62 melanoma and in the assay on UO-31 renal was greater than 100 µM throughout.
As for `COC(=O)C1=C(C)NC(CF)=C(C(=O)OC)C1c1cccc2c(=O)c3ccccc3oc12` (centres undefined), the TGI is 62.3 µM with CAKI-1 renal; greater than 100 µM with CCRF-CEM leukemia; greater than 100 µM with HL-60(TB) leukemia; greater than 100 µM in the assay on HS 578T breast; greater than 100 µM in the assay on MDA-MB-435; greater than 100 µM in the assay with NCI-H522 lung. The TGI in the assay on OVCAR-5 ovarian, with SF-539 CNS, in the assay on SK-MEL-5 melanoma, with SN12C renal, in the assay on SW-620 colon and with TK-10 renal was greater than 100 µM in each case. The TGI in the assay on UACC-62 melanoma was greater than 100 µM; with UO-31 renal, 92.8 µM.
With `O=C1C=C(Nc2cc(Cl)ccc2Cl)c2ccccc2C1=O`, the TGI in the assay with CAKI-1 renal was 75.5 µM; with HL-60(TB) leukemia, 40.9 µM; in the assay with M14 melanoma, 38.9 µM; in the assay on OVCAR-5 ovarian, greater than 100 µM; in the assay on SF-539 CNS, greater than 100 µM; with SN12C renal it was greater than 100 µM. The TGI in the assay on SNB-19 CNS is greater than 100 µM; in the assay with SW-620 colon, greater than 100 µM; in the assay with UACC-62 melanoma, 31.4 µM; in the assay on UO-31 renal, greater than 100 µM.
As to `CC(=O)NNc1nc(C)c(C(=O)/C=C/c2ccc(N(C)C)cc2)s1`, the TGI with CAKI-1 renal, in the assay with CCRF-CEM leukemia, in the assay on HL-60(TB) leukemia, in the assay with NCI-H522 lung, in the assay on OVCAR-5 ovarian and in the assay with SF-539 CNS was greater than 100 µM each time. For the same compound, the TGI with SK-MEL-5 melanoma, with SN12C renal, in the assay with SW-620 colon, with TK-10 renal, with UACC-62 melanoma and in the assay on UO-31 renal was greater than 100 µM throughout.
In the case of `COc1ccc(N=Nc2c(-c3ccccc3)nn(C(=O)CC(=O)Nc3ccc(OC)cc3)c2-c2ccccc2)cc1`, the TGI with CAKI-1 renal is greater than 100 µM; in the assay with CCRF-CEM leukemia, 53.1 µM; in the assay with HL-60(TB) leukemia it was greater than 100 µM; in the assay on NCI-H522 lung, greater than 100 µM; in the assay on OVCAR-5 ovarian, greater than 100 µM; in the assay with SF-539 CNS, 59 µM. Further, the TGI with SK-MEL-5 melanoma, in the assay on SN12C renal, in the assay with SNB-19 CNS, in the assay on SW-620 colon, in the assay with TK-10 renal and with UACC-62 melanoma was greater than 100 µM each time. In the assay with UO-31 renal, this compound yielded a TGI greater than 100 µM.
For the compound `CCN(CC)CCC(=O)c1ccc(Cl)c(Cl)c1`, the TGI is 50.5 µM in the assay on CCRF-CEM leukemia; greater than 100 µM in the assay with HL-60(TB) leukemia; 45.9 µM in the assay on HS 578T breast; greater than 100 µM in the assay with M14 melanoma; 30.8 µM in the assay with MDA-MB-435; 32.8 µM in the assay on NCI-H522 lung. Moreover, the TGI in the assay on OVCAR-5 ovarian was greater than 100 µM; with SK-MEL-5 melanoma it was 35.5 µM; in the assay with SN12C renal, greater than 100 µM; with SNB-19 CNS, greater than 100 µM; in the assay on SW-620 colon, 41.3 µM; in the assay with UACC-62 melanoma, 31 µM. In the assay on UO-31 renal, this compound registered a TGI greater than 100 µM.
